Results on 1 molecule are retold here after paper PMC12400753 (Respiratory Research, 2025).

Series [1] deals with bleomycin-induced lung fibrosis. The series can be described thus: Intratracheal bleomycin mouse model (14 day, prophylactic dosing). Format: in vivo. The following applies: for body weight improvement over bleomycin alone: day 14. The method, then:
Intratracheal instillation of bleomycin results in acute alveolar cell damage, inflammation, and subsequent tissue remodeling and is a widely used preclinical IPF model.
Female C57BL6/N mice 8–10 weeks old were obtained from Charles River. […] Bleomycin was administered by oropharyngeal instillation 23 h after first dose (Day 0). On the day of instillation, bleomycin was prepared by diluting a 15 unit (U) vial to 1.5 U/mL with sterile saline. Mice were lightly anesthetized with isoflurane (5% in 100% O2) and administered sterile saline or bleomycin (3.0 U/kg) via oropharyngeal instillation at a dose volume of 2 mL/kg (2 µL/g). Mice were returned to their cages and monitored daily for the duration of each experiment. […] Fourteen days after bleomycin instillation, mice were euthanized via isoflurane anaesthesia, cardiac blood collected into K3EDTA tubes and stored on wet ice, and BALF and lungs were isolated for subsequent analysis of biochemical and histopathological indices of lung injury, inflammation, and fibrosis. To do this, mice were intubated with a 20-gauge luer stub adapter connected to a 3-way stopcock fitted with two 3 mL syringes (the delivery syringe was pre-filled with 1.5 mL phosphate buffered saline (PBS), and the receiving syringe was empty). Lungs were lavaged with PBS (2 × 0.75 mL) to obtain BALF. BALF was placed on wet ice until centrifugation to separate from cells. Lungs were dissected and placed into 1 mL 6 M HCl for collagen analysis using the Quickzyme total collagen assay kit according to manufacturer’s instructions. At the end of the experimental collection, BALF was centrifuged (300 x g, 10 min, 4 °C) to isolate BALF from the cell pellet. The cell pellet was discarded and the BALF aliquoted and stored at −80 °C for biomarker analysis. For the analysis, n = 8 biological replicates were analyzed in singlicate for various biomarkers (total protein, TGFβ1, TIMP-1, procollagen) according to manufacturer’s recommended instructions.

On the set-up of series [2]: method as in NCT05983939. The following applies: Phase I; ref NCT05983939; cited from earlier work.
Another series concerns the target T1, human LPAR5 (Homo sapiens, UniProt Q9H1C0).
T1 construct: host or cells: HEK293T
The series can be described thus: LPA-induced calcium mobilization in transiently transfected HEK293T cells. In kind it is cell-based. The conditions noted are these: 3 h preincubation; LPA at EC80 1 µM. The procedure: (§1) We had previously assessed selectivity against LPAR2 and 3 [11]. […] Human LPAR1-6 plasmids were each transiently transfected into HEK293T cells and the EC80 (effective concentration producing 80% maximal effect) for LPA activation empirically determined. Selectivity was then tested in a concentration response paradigm using a 3 h preincubation followed by LPA-induced calcium mobilization.
(§2) Plasmids containing human LPAR1-6 were obtained from Origene (Rockville, MD) and maxiprepped at Eton Biosciences (San Diego, CA). Transfection mix was prepared by adding Fugene 6 transfection mix to serum free media and 0.1 µg plasmid. After a 20 m incubation, HEK293T cells (ATCC, Manassas VA) were lifted with Accutase and added to the Fugene mix at a final concentration of 0.5 × 10^4 cells/well. Cells were then plated on black clear bottom 96-well plates and incubated overnight in a 37 °C, 5% CO2 incubator. […] During the last hour of incubation, media was removed and replaced with Fluo-4 NW calcium assay dye prepared as per manufacturer’s recommendations in assay buffer. Agonist plates containing LPA were prepared for individual receptor subytpes using their respective EC80. Calcium mobilization was measured as per manufacturer’s directions on a Flexstation 3 (Molecular Devices, San Jose, CA).

Another series concerns the target T2, human LPAR2 (Homo sapiens, UniProt Q9HBW0).
T2 construct: host or cells: HEK293T
The series is described as above. Format: cell-based. The conditions noted are these: 3 h preincubation; LPA at EC80 5 µM. The method, then: as §1, §2

Another series concerns the target T3, human LPAR3 (Homo sapiens, UniProt Q9UBY5).
T3 construct: host or cells: HEK293T
T3 sequence (Q9UBY5 1-353): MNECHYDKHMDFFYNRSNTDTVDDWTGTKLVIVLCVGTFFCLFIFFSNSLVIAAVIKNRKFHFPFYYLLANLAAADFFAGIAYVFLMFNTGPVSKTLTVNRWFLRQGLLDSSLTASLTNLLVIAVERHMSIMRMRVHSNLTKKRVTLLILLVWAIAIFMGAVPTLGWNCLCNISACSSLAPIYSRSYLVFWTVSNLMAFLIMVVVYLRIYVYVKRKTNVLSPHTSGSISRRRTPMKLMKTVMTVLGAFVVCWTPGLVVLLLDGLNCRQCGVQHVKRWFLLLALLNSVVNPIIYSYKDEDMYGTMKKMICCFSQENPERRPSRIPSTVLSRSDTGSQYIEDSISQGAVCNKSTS
The series is described as above. In kind it is cell-based. The conditions noted are these: 3 h preincubation; LPA at EC80 10 µM. The procedure:
as §1, §2

For another series, the target named is T4, human LPAR6 (Homo sapiens, UniProt P43657).
T4 construct: host or cells: HEK293T
T4 sequence (P43657 1-344): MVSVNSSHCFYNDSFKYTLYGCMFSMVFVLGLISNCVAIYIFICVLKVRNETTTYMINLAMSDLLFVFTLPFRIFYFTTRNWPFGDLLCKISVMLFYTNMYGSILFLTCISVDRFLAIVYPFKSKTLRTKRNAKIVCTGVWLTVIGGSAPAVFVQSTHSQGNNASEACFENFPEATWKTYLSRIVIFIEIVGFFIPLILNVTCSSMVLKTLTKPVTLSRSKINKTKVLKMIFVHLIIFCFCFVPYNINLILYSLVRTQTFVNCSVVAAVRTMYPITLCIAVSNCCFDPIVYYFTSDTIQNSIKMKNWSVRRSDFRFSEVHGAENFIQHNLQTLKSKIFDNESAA
The series is described as above. The conditions noted are these: 3 h preincubation; LPA at EC80 13 µM. Format: cell-based. The procedure: as §1, §2

The target in the next series is T5, human LPAR4 (Homo sapiens, UniProt Q99677).
T5 construct: host or cells: HEK293T
The description is as above. In kind it is cell-based. The conditions noted are these: 3 h preincubation; LPA at EC80 10 µM. The procedure: as §1, §2

For series [3], the system named is bleomycin-induced macrophage activation. The series can be described thus: Intratracheal bleomycin, therapeutic dosing: BAL macrophage size and IL-1β. Format: in vivo, mouse. The following applies: 3 mg/kg oral once a day from day 3 after bleomycin. The method, then:
To further support our ex vivo macrophage findings, we used a therapeutic paradigm where mice were challenged in vivo with intratracheal instillation of bleomycin. […] The fluid was centrifuged and supernatant and cell fractions analyzed.
Mice were dosed until day 14 at which point BAL fluid was collected. BAL was centrifuged and cells were transferred to culture plates and incubated overnight at 37 °C. Plates were spun down and supernatant and cell pellet analysed separately. Supernatant was analyzed for IL-1β as described for mouse above. The cell pellet for each condition was plated at 3 × 10^3 cells/well in black clear bottom 96-well plates. After settling, cells were fixed in formalin and immunostained against CD68 and detected with a donkey anti-rat Alexa 488 conjugated antibody. Image acquisition and analysis was performed using a Nikon A1R confocal microscope and NIS Elements software.

T5 sequence (Q99677 whole entry): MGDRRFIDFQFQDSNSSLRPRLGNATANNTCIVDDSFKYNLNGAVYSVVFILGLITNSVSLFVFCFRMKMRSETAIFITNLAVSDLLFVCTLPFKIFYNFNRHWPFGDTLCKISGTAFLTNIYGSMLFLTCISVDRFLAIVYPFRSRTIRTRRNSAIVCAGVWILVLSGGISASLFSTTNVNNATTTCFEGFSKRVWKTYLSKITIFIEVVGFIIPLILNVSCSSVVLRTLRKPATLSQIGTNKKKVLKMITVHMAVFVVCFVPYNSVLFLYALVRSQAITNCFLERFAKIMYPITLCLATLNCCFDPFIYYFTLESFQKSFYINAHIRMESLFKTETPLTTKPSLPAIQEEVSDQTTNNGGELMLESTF
T2 sequence (Q9HBW0 whole entry): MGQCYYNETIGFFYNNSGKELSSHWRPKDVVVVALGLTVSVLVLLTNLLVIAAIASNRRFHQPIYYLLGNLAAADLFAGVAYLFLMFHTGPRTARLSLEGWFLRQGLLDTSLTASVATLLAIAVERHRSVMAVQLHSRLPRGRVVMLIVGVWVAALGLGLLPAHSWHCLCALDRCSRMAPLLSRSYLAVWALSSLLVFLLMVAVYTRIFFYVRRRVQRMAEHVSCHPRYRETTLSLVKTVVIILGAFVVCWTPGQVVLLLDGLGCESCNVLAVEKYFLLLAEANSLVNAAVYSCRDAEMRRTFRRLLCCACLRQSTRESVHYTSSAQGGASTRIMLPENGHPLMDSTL
T1 sequence (Q9H1C0 whole entry): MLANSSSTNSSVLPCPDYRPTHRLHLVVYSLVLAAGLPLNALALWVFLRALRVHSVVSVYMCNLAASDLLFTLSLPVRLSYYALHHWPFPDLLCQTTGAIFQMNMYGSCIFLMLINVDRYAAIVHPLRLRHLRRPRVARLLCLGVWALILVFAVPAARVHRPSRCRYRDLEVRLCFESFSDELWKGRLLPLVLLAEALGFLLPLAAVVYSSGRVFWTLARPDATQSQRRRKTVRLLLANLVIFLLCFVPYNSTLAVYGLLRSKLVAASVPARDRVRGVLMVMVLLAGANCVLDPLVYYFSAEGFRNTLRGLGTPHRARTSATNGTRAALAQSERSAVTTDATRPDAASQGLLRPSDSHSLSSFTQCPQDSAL

Regarding `COc1ccc(NC(=O)N(c2ccccc2C(C)C)C2CCC(C(=O)O)CC2)c(OC(F)F)n1` (stereo not shown) [PIPE-791], the “body weight improvement over bleomycin alone” value is listed as 28% in series [1] (0.03 mg/kg oral once a day), 41% in series [1] (0.3 mg/kg oral once a day) and 38% in series [1] (3 mg/kg oral once a day). Further, the “lung hydroxyproline (collagen)” value in series [1] (0.03 mg/kg oral once a day, p = 0.077) is “trending decrease in collagen, the values did not reach statistical significance”. In addition, the “reduction in lung hydroxyproline” value was 41% in series [1] (0.3 mg/kg oral once a day) and 39% in series [1] (3 mg/kg oral once a day). Further, the “reduction in BAL fluid TGFβ vs bleomycin/vehicle” value in series [1] (3 mg/kg oral once a day) is on record as 51%. The “reduction in BAL fluid TIMP1 vs bleomycin/vehicle” value in series [1] (3 mg/kg oral once a day) is 57%. Further, the “reduction in BAL fluid procollagen vs bleomycin/vehicle” value in series [1] (3 mg/kg oral once a day) was determined as 65%. Moreover, in series [1] (0.03, 0.3, 3 mg/kg groups, 3 mice died in bleomycin/vehicle group), the survival entry is on record as “no mice lost”. In addition, the “maximal inhibition of lung collagen” value in series [1] (prophylactic, at 0.3 mg/kg (discussion)) stood at 40%. The safety and tolerability result in series [2] is “safe and well-tolerated”. Also, the IC50 at human LPAR5 came out at 114 nM; on human LPAR2 it was 463 nM; at human LPAR3, 398 nM; at human LPAR6 it was 805 nM; at human LPAR4, 607 nM. Also, the “reduction of IL-1β in BAL supernatant” value in series [3] was found to be 69.2%. Besides, the “reduction of macrophage cell size (CD68 area)” value in series [3] (BAL cells) was 56%.
